How the values were obtained:
[1] = system: DOX-induced cardio and hepatotoxicities; assay: Doxorubicin (DOX)-induced acute heart failure animal model; type: in vivo, mice
Description: This animal model is associated with an increase in oxidative stress and causes significant hepatopathy after DOX injection.
Specifically, 20-week-old male mice were injected intraperitoneally once with 20 mg/kg of DOX. […] Mortality was observed up to 10 days after DOX administration. After 10 days, the mice were sacrificed and the expressions of enzymes in the heart and liver tissues were analyzed. The cardiac function of the mice was also measured by echocardiogram.

[2] = H2O2 scavenging by PVAX or MnP-PVAX microparticles (amplex red assay); conditions: 10 μM H2O2, 1 mg microparticles, 37° C., 6 or 24 h
Description: After short centrifugation, the concentration of H2O2 in the supernatant was measured using an amplex red assay (Invitrogen, US).

[3] = system: RAW 264.7 cells; assay: NO production in LPS-treated cells (Griess reaction); type: cell-based; conditions: LPS-treated RAW 264.7, Griess
Description: The concentration of NO was determined using a colorimetric assay based on the Griess reaction. 50 μL of cell culture medium was collected and given 100 μL of Griess reagent (6 mg/mL) at room temperature for 10 min, and then the NO concentration was determined by measuring the absorbance at 540 nm using a microplate reader (Synergy MX, BioTek Instruments, US). The NO standard curve was constructed using known concentrations of sodium nitrite.

[4] = system: RAW 264.7 cells activated with PMA; assay: ROS production in PMA-activated cells (DCFH-DA, flow cytometry); type: cell-based; conditions: PMA-stimulated; VA 0.5 mM, PVAX 100 μg
Description: The cells were treated with […] to stimulate the production of reactive oxygen species in the cells. After 4 hours, the cells were treated with DCFH-DA (dichlorofluorescin-diacetate), after which DCF ([…]) (a marker of intracellular oxidative stress) was analyzed using a flow cytometer (Becton Dickinson, US).

[5] = system: OVA-induced allergic airway inflammation; assay: Mouse model of ovalbumin (OVA)-induced allergic asthma; type: in vivo, BALB/c mice; conditions: OVA-sensitized and challenged mice, ELISA
Description: On days 15, 16 and 17, mice were challenged intranasally with 50 μg of OVA. […] A sham group was given PBS only. On day 19, the mice were sacrificed and lung lobes were isolated along with the trachea. Lungs were also lavaged with 500 μL of PBS introduced through the trachea. BALF (bronchiolavage fluid) was centrifuged at 300×g for 5 min, and cells were rinsed and resuspended with PBS. Aliquots of the cell suspension were applied to slides by Cytospin (Hanil, Korea) at 500×g for 5 minutes allowed to air dry and stained with modified Wright's stain (Hema-3, Fisher Scientific). The numbers of macrophages, eosinophils, neutrophils and lymphocytes were determined morphologically and a minimum of 200 cells per slide were counted under the microscope (Eclipse, Nikon, Japan). The level of TNF-α in the supernatant of BALF was measured with an ELISA kit as advised by manufacturer (eBioScience, San Diego, Calif.). Lungs were perfused with PBS, removed and fixed in 4% buffered formalin. Lungs were embedded in paraffin and serial paraffin sections (3 μm) were cut. The sections were stained with hematoxylin (Yeongdong Pharma, Korea) and eosin (Showa Chemicals, Japan). Results are illustrated in FIGS. 49-51.

[6] = Particle stability versus loading ratio; type: physicochemical
From the text: However, PVAX allowed greater ratio of VA-CHDM (up to 60%), providing greater therapeutic effects without significant compromise of the stability.

[7] = echocardiogram, DOX-treated mice

## COc1cccc2c1C(=O)c1c(O)c3c(c(O)c1C2=O)C[C@@](O)(C(=O)CO)C[C@@H]3O[C@H]1C[C@H](N)[C@H](O)[C@H](C)O1 [DOX, doxorubicin]
[1]; 10 days after DOX, p<0.05
  survival: 35%
[1]; [7]
  ejection fraction (EF), mean: 25.54
  fractional shortening (FS), mean: 50.41
[1]; observation up to 10 days after DOX 20 mg/kg i.p., PVAX daily
  mortality rate: 65%

## C1=Cc2cc3ccc(cc4nc(cc5ccc(cc1n2)[nH]5)C=C4)[nH]3.[Mn] [MnP, manganese porphyrin]
[2]
  H2O2 scavenging activity: H2O2 scavenging activity in a time-dependent manner
[3]
  inhibitory effects on NO production: inhibitory effects on NO production, not significant

## COc1cc(CO)ccc1O [VA, 4-(hydroxymethyl)-2-methoxyphenol]
[4]
  intracellular ROS generation (DCF fluorescence): only slightly suppressed ROS generation
[3]
  inhibitory effects on NO production: inhibitory effects on NO production, not significant
[5]
  expression of TNF-α in BALF: suppressed the expression of TNF-α

## poly(p-hydroxy-benzyl alcohol (HBA)-oxalic acid) copolymer [HPOX]
[6]
  particle stability / feasibility of loading: not feasible due to instability of the particles

From patent publication US9844564B2 (Industrial Cooperation Foundation Chonbuk National …, priority 2012, dated 2017)
